This passage reports GI50 and TGI results from PubChem BioAssay (NCI).

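Method: 48-hour compound exposure of cells in 96-well plates, five concentrations, linear interpolation of endpoints. GI50: concentration for 50% inhibition of growth. At the TGI there is no net growth.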

What all share (experiment): NCI-60 cell line screen, 48 h
Assay [1] deals with EKVX NSCLC.
Assay [2] has as its system NCI-H522 lung.
The test system of assay [3] is MDA-MB-231 breast.
The subject of assay [4] is SF-268 CNS.
The test system of assay [5] is M14 melanoma.
For assay [6], the system named is HOP-62 NSCLC.
Assay [7] deals with OVCAR-5 ovarian.
Assay [8] relates to RPMI-8226 leukemia.

Regarding `COc1cc(-c2nc3ccccc3s2)ccc1OCCCCOc1cc2c(cc1OC)C(=O)N1CCC[C@H]1C=N2`, the GI50 in assay [1] was 2.24 µM; in assay [2] it was 0.736 µM; in assay [3], 0.911 µM; in assay [4] it was 1.28 µM; in assay [5], 1.38 µM; in assay [6] it was 1.56 µM. In addition, the results for the GI50 in assay [7] and in assay [8] were 1.13 µM and 0.328 µM, respectively. Moreover, the TGI came out at 5.51 µM in assay [1]; 3.16 µM in assay [2]; 3.09 µM in assay [3]; 4.65 µM in assay [4]; 2.92 µM in assay [5]; 3.37 µM in assay [6]. Also, the figures for the TGI in assay [7] and in assay [8] were 4.93 µM and 1.44 µM, respectively.

With `O=C(Oc1cccc(Cl)c1)c1ccccc1Nc1ccnc(C(F)(F)F)c1`, the GI50 in assay [1] is 22.2 µM; in assay [2], 4.21 µM; in assay [3], 1.69 µM; in assay [4], 3.03 µM; in assay [5] it was 1.77 µM; in assay [6] it was 24.9 µM. Further, the results for the GI50 in assay [7] and in assay [8] were 13.8 µM and 1.83 µM, respectively. In addition, the TGI is 46.4 µM in assay [1]; 41.1 µM in assay [2]; 4.7 µM in assay [3]; 10.8 µM in assay [4]; 4.46 µM in assay [5]; 44.7 µM in assay [6]. In addition, the figures for the TGI in assay [7] and in assay [8] were 57 µM and 4.33 µM, respectively.

For `C=C1C(=O)O[C@H]2[C@H]1CC/C(COC(=O)CCCCCC(=O)OC/C1=C/CC[C@@]3(C)O[C@H]3[C@H]3OC(=O)C(=C)[C@@H]3CC1)=C\CC[C@@]1(C)O[C@@H]21`, the GI50 in assay [1] was 2.84 µM; in assay [2] it was 1.72 µM; in assay [3], 1.68 µM; in assay [4] it was 3.44 µM; in assay [5], 2.68 µM; in assay [6], 2.34 µM. Also, the GI50 in assay [7] is 1.97 µM; in assay [8], 1.69 µM. In addition, the TGI is 11.5 µM in assay [1]; 3.44 µM in assay [2]; 3.62 µM in assay [3]; 14.8 µM in assay [4]; 8.29 µM in assay [5]; 6.46 µM in assay [6]. The TGI was 4.17 µM in assay [7] and 5.51 µM in assay [8].

Turning to `CCCCC(SC(=S)N1CCCC1)C(=O)Nc1nc(CC(=O)OCC)cs1` (stereo not given), the GI50 was 56.4 µM in assay [1]; 6.87 µM in assay [2]; above 100 µM in assay [3]; 37.5 µM in assay [4]; 32.9 µM in assay [5]; above 100 µM in assay [6]. Further, the values for the GI50 in assay [7] and in assay [8] were 37.2 µM and 10.6 µM, respectively. For the same compound, the TGI in assay [1], in assay [2], in assay [3], in assay [4], in assay [5] and in assay [6] was above 100 µM each time. The values for the TGI in assay [7] and in assay [8] were above 100 µM and 90.9 µM, respectively.

For the compound `COc1c(C(C)=O)c(OCCCCOc2c(C(C)=O)c(OC)c3ccoc3c2OC)c(OC)c2occc12`, the GI50 in assay [1] is 2.48 µM; in assay [2], 2.63 µM; in assay [4] it was above 42.1 µM; in assay [5], 2.55 µM; in assay [6], above 100 µM; in assay [7], above 100 µM. Further, the GI50 in assay [8] is 0.394 µM. Further, the TGI in assay [1], in assay [2], in assay [3], in assay [4], in assay [5] and in assay [6] was above 100 µM in each case. Further, the TGI was above 100 µM in assay [7] and 5.57 µM in assay [8].

With `COc1ccc(-c2c(C)c(C(=O)O)nc(-c3ccc4c(O)c(OC)c5c(c4n3)=NC(C)(C)N=5)c2N)c(O)c1OC`, the TGI in assay [1] is above 100 µM; in assay [2] it was 24.5 µM; in assay [3] it was above 100 µM; in assay [4] it was 21.6 µM; in assay [5], 74.6 µM; in assay [6], 44 µM. Moreover, the results for the TGI in assay [7] and in assay [8] were above 100 µM and 86.6 µM, respectively.

In the case of `O=C(O)C(Cc1cnc[nH]1)N1C(=O)c2ccccc2C1=O` (stereo not given), the TGI in assay [1], in assay [2], in assay [3], in assay [4], in assay [5] and in assay [6] was above 100 µM throughout. The TGI in assay [7] and in assay [8] was above 100 µM throughout.

For the compound `CCCn1c2c(c3c(O)cccc31)C(=O)c1ccccc1-2`, the GI50 in assay [1] is 15.9 µM; in assay [2] it was 23 µM; in assay [3], 22.1 µM; in assay [4] it was 19.5 µM; in assay [5] it was 60.6 µM; in assay [6], 8.24 µM. For the same compound, the values for the GI50 in assay [7] and in assay [8] were 3.72 µM and 7.34 µM, respectively. Besides, the TGI in assay [1] is above 100 µM; in assay [2], above 100 µM; in assay [3] it was 73.8 µM; in assay [4] it was above 100 µM; in assay [5] it was above 100 µM; in assay [6], 27.6 µM. Further, the TGI in assay [7] and in assay [8] was above 100 µM each time.

Take `CCCCCCCCCCCC1=NC(C)(C)CN1C(C)(C)CO`: the GI50 is 2.77 µM in assay [1]; 1.84 µM in assay [2]; 2.1 µM in assay [3]; 2.35 µM in assay [4]; 1.79 µM in assay [5]; 2.72 µM in assay [6]. For the same compound, the values for the GI50 in assay [7] and in assay [8] were 3.61 µM and 2.49 µM, respectively. The TGI was found to be 16.9 µM in assay [1]; 4.02 µM in assay [2]; 4.48 µM in assay [3]; 11.3 µM in assay [4]; 3.4 µM in assay [5]; 9.53 µM in assay [6]. Besides, the TGI in assay [7] is 15 µM; in assay [8] it was 5.83 µM.

On to `CN1C(=O)c2ccc3ccccc3c2C1=O`, for which the TGI was 87.2 µM in assay [1]; above 100 µM in assay [2]; above 100 µM in assay [3]; above 100 µM in assay [4]; above 100 µM in assay [5]; above 100 µM in assay [6]. For the same compound, the TGI in assay [7] and in assay [8] was above 100 µM each time.
